Where “and” joins values, the source holds several entries; their conditions need not be identical. Equal values may be shown once.

Experimental findings from publication PMC4774911, “Biochemical Screening of Five Protein Kinases from Plasmodium falciparum against 14,000 Cell-Active Compounds” (PLoS ONE, 2016) are described below.

Holding throughout (experiment): biochemical
The target of experiment [1] is ABL2 (Homo sapiens, UniProt P42684).
Experiment [2] addresses BMP2K (Homo sapiens, UniProt Q9NSY1).
Experiment [3] has as its target CAMK2D (Homo sapiens, UniProt Q13557).
In experiment [4] the target is CDC42BPG (Homo sapiens, UniProt Q6DT37).
Experiment [5] concerns the target CDK9 (Homo sapiens, UniProt P50750).
Experiment [6] has as its target CRKRS (Homo sapiens, UniProt Q9NYV4).
Experiment [7] concerns the target DYRK1A (Homo sapiens, UniProt Q13627).
The target of experiment [8] is GSK3B (Homo sapiens, UniProt P49841).
Experiment [9] deals with T1, IRAK4 (Homo sapiens, UniProt Q9NWZ3).
T1 sequence (Q9NWZ3 1-460): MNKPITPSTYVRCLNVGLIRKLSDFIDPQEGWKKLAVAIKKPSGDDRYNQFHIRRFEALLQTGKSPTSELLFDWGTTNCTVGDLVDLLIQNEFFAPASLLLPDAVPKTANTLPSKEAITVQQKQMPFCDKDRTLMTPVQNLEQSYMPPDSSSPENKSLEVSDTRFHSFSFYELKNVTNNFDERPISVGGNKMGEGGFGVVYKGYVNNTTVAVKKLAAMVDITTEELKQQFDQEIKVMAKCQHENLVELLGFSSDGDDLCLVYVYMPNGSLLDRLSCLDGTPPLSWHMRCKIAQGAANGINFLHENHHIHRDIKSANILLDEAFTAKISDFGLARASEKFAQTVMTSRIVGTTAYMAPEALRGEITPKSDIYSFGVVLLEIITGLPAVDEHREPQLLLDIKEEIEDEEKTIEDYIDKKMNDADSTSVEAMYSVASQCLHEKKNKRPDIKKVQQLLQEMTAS

For experiment [10], the target named is MAP2K1 (Homo sapiens, UniProt Q02750).
For experiment [11], the target named is T2, MAP3K2 (Homo sapiens, UniProt Q9Y2U5).
T2 sequence (Q9Y2U5 1-619): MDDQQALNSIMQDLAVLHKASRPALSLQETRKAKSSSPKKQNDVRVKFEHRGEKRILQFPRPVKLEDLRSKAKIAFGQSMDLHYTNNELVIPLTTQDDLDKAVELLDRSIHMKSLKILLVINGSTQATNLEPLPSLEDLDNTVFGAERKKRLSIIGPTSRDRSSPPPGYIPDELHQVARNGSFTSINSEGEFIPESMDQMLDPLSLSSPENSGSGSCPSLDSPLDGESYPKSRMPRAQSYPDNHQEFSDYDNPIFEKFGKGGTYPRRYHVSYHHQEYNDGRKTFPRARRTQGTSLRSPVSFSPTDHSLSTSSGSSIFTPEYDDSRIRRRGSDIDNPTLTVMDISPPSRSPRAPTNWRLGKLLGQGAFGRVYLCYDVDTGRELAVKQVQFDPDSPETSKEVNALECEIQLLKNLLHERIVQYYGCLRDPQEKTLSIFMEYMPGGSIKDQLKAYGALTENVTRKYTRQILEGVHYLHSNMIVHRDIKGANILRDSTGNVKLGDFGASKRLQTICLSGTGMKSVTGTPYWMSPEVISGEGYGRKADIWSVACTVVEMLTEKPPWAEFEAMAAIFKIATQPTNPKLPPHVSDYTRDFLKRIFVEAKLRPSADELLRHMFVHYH

For experiment [12], the target named is T3, MASTL (Homo sapiens, UniProt Q96GX5).
T3 sequence (Q96GX5 1-879): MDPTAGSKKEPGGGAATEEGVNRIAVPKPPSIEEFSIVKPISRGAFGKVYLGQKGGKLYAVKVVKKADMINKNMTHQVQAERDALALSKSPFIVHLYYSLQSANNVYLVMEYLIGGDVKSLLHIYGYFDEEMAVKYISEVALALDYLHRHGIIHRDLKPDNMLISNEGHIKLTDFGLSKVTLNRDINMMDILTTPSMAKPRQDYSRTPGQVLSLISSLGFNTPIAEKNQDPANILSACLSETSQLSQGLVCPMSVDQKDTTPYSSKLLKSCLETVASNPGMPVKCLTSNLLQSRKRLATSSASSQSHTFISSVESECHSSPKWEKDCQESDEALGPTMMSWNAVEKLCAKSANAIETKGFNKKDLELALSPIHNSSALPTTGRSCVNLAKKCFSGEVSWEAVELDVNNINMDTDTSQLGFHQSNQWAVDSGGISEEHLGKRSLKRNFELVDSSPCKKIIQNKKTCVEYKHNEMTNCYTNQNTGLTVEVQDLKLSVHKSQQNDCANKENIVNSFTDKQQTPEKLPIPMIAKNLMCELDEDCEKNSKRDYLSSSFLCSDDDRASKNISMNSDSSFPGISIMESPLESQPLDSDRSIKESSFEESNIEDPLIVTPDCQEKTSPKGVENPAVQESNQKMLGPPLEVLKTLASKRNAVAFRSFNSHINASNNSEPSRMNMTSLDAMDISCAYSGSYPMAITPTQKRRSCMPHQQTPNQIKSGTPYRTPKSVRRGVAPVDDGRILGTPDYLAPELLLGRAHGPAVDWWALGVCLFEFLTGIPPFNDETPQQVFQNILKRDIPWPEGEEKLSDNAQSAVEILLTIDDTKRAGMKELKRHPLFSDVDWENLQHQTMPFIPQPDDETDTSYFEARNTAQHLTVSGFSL

In experiment [13] the target is PCTK2 (Homo sapiens, UniProt Q00537).
The target in experiment [14] is PIM1 (Homo sapiens, UniProt P11309).
In experiment [15] the target is RIPK2 (Homo sapiens, UniProt O43353).
Experiment [16] deals with SIK2 (Homo sapiens, UniProt Q9H0K1).
The target in experiment [17] is ZAK (Homo sapiens, UniProt Q9NYL2).

MAP2K1, sequence (Q02750 whole entry): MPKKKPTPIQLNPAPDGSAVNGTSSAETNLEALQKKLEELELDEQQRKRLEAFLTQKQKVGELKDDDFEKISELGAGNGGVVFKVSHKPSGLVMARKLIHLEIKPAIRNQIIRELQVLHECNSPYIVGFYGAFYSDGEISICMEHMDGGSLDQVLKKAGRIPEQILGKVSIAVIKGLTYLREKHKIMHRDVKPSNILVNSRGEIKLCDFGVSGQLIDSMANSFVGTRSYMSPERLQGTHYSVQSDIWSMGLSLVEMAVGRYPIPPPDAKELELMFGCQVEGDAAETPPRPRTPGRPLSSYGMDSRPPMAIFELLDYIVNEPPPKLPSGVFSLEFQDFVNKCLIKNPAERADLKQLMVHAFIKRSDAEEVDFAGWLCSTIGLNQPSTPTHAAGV
CRKRS, sequence (Q9NYV4 whole entry): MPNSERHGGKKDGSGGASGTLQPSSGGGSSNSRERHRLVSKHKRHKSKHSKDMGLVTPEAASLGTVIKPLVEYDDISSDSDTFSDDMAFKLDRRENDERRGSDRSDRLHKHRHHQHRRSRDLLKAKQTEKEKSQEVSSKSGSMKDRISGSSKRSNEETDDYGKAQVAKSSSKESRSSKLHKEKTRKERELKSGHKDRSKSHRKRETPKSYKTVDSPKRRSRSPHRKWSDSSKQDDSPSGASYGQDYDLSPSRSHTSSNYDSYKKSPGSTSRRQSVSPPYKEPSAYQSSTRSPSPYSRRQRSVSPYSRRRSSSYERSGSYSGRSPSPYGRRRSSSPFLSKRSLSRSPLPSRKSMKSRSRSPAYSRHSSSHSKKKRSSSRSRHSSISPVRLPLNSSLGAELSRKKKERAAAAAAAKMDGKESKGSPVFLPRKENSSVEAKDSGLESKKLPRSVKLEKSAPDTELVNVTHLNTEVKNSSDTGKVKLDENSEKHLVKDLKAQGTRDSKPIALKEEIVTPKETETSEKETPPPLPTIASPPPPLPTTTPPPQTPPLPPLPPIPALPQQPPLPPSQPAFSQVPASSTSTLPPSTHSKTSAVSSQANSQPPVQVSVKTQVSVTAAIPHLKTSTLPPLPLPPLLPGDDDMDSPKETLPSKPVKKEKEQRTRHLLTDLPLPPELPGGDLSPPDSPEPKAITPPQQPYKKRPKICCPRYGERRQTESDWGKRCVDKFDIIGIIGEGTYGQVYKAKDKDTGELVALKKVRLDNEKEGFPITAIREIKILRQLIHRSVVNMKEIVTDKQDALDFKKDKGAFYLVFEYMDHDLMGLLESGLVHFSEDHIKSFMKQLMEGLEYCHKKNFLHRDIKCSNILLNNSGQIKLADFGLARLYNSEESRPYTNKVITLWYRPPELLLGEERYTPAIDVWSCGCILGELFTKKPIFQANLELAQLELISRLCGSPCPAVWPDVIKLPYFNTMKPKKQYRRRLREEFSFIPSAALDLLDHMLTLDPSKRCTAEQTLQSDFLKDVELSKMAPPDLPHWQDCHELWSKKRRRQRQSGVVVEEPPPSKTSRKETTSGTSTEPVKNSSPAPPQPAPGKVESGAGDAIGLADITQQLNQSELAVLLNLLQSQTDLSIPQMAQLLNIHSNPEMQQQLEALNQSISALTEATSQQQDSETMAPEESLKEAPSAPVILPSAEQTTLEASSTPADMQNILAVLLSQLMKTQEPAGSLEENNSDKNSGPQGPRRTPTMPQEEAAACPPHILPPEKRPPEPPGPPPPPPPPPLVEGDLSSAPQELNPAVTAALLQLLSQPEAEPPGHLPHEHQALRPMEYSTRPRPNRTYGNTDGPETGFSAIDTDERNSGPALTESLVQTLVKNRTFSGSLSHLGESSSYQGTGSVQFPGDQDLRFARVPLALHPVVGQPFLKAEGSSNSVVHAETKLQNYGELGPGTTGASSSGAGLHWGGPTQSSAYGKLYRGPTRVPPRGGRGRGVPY
PCTK2, sequence (Q00537 whole entry): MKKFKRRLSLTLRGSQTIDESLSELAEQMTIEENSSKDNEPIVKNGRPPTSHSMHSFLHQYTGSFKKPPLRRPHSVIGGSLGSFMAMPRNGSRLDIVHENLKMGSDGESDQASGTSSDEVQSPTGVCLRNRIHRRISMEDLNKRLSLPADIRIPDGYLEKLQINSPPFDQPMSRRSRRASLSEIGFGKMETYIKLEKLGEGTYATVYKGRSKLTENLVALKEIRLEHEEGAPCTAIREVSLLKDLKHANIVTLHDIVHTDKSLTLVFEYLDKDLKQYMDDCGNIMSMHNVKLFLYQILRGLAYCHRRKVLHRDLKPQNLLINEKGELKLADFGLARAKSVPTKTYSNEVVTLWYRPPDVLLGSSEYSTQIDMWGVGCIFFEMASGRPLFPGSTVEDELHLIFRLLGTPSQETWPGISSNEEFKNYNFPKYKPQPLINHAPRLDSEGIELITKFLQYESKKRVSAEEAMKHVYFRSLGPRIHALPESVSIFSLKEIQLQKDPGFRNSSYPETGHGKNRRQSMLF
CDK9, sequence (P50750 whole entry): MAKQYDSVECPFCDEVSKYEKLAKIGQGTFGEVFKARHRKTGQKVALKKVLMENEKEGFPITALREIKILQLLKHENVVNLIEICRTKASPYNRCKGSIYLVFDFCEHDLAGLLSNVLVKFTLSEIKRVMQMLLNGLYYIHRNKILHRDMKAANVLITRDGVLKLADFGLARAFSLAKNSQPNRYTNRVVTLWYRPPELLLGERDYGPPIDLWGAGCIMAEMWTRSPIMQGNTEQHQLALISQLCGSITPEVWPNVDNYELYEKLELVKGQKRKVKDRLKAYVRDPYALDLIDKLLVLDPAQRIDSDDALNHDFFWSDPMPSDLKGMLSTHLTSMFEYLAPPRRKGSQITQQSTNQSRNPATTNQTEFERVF
ABL2, sequence (P42684 whole entry): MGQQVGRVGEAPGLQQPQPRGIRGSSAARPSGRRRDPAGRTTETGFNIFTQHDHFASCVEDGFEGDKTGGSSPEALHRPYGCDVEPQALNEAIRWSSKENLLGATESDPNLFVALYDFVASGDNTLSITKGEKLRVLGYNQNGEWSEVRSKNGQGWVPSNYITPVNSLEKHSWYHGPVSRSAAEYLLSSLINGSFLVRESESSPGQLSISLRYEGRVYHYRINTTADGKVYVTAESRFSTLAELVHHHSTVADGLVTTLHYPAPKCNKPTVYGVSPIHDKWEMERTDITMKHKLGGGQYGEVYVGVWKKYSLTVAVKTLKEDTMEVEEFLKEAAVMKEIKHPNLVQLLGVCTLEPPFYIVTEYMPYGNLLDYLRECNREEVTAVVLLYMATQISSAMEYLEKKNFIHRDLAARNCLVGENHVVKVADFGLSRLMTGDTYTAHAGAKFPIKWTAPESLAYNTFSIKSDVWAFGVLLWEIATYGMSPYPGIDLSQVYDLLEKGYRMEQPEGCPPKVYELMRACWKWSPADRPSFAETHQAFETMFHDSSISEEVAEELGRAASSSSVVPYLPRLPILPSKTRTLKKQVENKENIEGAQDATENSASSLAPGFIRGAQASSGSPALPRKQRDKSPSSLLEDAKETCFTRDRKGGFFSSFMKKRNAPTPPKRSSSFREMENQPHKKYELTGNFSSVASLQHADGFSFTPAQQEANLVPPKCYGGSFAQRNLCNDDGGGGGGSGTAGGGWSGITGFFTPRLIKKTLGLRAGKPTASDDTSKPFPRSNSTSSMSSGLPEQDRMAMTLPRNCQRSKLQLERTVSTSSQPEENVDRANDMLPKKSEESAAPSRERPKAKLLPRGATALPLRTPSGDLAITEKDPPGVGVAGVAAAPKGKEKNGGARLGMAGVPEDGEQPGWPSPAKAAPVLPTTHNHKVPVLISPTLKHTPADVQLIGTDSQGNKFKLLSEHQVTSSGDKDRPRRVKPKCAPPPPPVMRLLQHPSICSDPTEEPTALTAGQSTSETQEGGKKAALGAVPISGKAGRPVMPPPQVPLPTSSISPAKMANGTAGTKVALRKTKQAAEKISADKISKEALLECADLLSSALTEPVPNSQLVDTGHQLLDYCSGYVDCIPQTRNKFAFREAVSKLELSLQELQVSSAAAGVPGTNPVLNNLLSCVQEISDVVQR
RIPK2, sequence (O43353 whole entry): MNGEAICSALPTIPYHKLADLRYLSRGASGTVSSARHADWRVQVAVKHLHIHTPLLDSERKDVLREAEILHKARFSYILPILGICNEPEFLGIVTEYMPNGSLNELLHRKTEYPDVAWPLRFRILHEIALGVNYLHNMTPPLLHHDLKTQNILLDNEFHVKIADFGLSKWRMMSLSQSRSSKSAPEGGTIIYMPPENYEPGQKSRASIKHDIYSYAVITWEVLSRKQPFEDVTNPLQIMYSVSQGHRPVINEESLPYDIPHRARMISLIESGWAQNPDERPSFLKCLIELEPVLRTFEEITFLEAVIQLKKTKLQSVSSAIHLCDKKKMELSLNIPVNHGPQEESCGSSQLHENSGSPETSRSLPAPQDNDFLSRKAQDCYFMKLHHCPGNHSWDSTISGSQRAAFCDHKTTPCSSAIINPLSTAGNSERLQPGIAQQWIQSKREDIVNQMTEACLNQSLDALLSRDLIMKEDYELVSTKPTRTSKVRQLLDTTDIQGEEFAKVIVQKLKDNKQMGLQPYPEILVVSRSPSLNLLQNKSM
GSK3B, sequence (P49841 whole entry): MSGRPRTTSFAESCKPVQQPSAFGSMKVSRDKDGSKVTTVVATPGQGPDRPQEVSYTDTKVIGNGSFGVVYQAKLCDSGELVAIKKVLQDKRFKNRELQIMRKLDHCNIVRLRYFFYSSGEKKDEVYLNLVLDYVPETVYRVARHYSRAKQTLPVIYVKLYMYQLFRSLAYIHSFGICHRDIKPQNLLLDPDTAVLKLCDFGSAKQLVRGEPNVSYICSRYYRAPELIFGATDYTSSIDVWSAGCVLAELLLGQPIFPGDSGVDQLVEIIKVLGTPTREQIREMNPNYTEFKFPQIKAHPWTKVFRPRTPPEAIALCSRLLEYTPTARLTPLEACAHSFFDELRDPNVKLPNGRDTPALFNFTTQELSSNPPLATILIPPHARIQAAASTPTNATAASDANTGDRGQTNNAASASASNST

With `CN1CCN(c2ccc(Nc3ncc(C#N)c(Nc4ccccc4C(N)=O)n3)cc2)CC1.Cl` [TCMDC-134116], the IC50 was 200 nM and 160 nM in [1]; 350 nM and 290 nM in experiment [2]; 1900 nM and 960 nM in experiment [3]; 1000 nM in [4]; 1100 nM and 750 nM in experiment [5]; 650 nM in experiment [6]. The IC50 in [7] is 490 nM and 450 nM; in [8] it was 2400 nM and 1500 nM; in [9], 170 nM; in experiment [10] it was 1800 nM and 1600 nM; in [11], 490 nM; in [12], 280 nM and 610 nM. In addition, the IC50 in experiment [13] is 76 nM and 110 nM; in [14], 7200 nM and 6000 nM; in [15], 810 nM; in [16] it was ≤ 32 nM and 35 nM; in experiment [17] it was 950 nM.
Take `Cl.NCC1(c2nc(-c3ccc(Cl)c(O)c3)c(-c3ccncc3)[nH]2)CCCCC1` [TCMDC-141154]: the IC50 in experiment [1] was 490 nM and 400 nM; in [2], greater than 20000 nM; in experiment [3] it was greater than 20000 nM; in experiment [4], 8000 nM; in [5] it was greater than 20000 nM; in experiment [6], greater than 20000 nM. Moreover, the IC50 in experiment [7] is greater than 20000 nM; in experiment [8], 7700 nM; in experiment [9], greater than 20000 nM; in experiment [10], 9700 nM and > 20000 nM; in experiment [11], 1200 nM; in experiment [12] it was greater than 20000 nM. In addition, the IC50 was greater than 20000 nM in [13]; greater than 20000 nM in [14]; 43 nM and 52 nM in experiment [15]; 570 nM and 530 nM in experiment [16]; 8600 nM and 5100 nM in experiment [17].
For `CN(C)CC(O)COc1ccc(Nc2ncc([N+](=O)[O-])c(Nc3ccccc3O)n2)cc1.O=C(O)C(F)(F)F` (stereo not drawn) [TCMDC-141399], the IC50 was 4200 nM in experiment [1]; greater than 20000 nM in experiment [2]; greater than 20000 nM in experiment [3]; 9600 nM in experiment [4]; 5300 nM and 7300 nM in experiment [5]; 2100 nM in experiment [6]. Also, the 50% inhibitory concentration (IC50) is 4900 nM in [7]; 8400 nM and 11000 nM in [8]; greater than 20000 nM in experiment [9]; greater than 20000 nM in [10]; greater than 20000 nM in experiment [11]; greater than 20000 nM in experiment [12]. For the same molecule, the IC50 in [13] was 1500 nM and 1400 nM; in experiment [14] it was greater than 20000 nM; in [15], greater than 20000 nM; in experiment [16], greater than 20000 nM; in experiment [17], greater than 20000 nM.
